Consider 30 compounds from patent US7125990B2, “Imidazolyl derivatives as corticotropin releasing factor inhibitors” (Bristol-Myers Squibb COmpany, priority 2001, dated 2006).

The target in this test is T1, CRF1 receptors (Homo sapiens, UniProt P34998).
T1 construct: endogenous in cells; host or cells: IMR-32 cells, transformed with 2.5 µM 5'-bromo-2'-deoxyuridine for 10 days; membrane preparation
T1 sequence (P34998 24-415): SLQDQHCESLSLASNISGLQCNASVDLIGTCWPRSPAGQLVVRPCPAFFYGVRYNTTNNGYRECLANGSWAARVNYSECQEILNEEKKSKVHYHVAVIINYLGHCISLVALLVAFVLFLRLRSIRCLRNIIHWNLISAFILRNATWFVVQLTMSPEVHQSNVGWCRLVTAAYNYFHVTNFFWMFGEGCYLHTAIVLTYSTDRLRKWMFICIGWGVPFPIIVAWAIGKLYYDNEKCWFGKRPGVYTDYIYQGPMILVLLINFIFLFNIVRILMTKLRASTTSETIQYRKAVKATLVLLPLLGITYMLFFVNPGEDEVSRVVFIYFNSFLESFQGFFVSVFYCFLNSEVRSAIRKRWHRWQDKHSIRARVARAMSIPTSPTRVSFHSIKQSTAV
Description: CRF1 receptor radioligand binding assay ([125I]-oCRF competition, IMR-32 cell membranes). Conditions: IMR-32 cell membranes, [125I]-oCRF 100 pM; read-out: Ki (CRF-1R). Put shortly: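 Buffer: Tris pH 7.2 with MgCl2, BSA, Triton X-100, aprotinin, leupeptin; reaction stopped with ice-cold wash and filtered. Nonspecific binding set with 10 μM oCRF.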
For `CCCN(Cc1ccccc1)Cc1c(C(F)(F)F)nc2n(-c3c(C)cc(C)cc3C)c3ncccc3n12` [Example 236, Benzyl-propyl-[2-trifluoromethyl-8-(2,4,6-trimethyl-phenyl)-8H-1,3a,7,8-tetraaza-cyclopenta[α]inden-3-ylmethyl]-amine], the Ki was below 10000 nM.

In the case of `CCc1nc2n(-c3c(C)cc(C)cc3C)c3ncccc3n2c1CN(CC1CC1)CC1CC1` [Example 246, Bis-cyclopropylmethyl-[2-ethyl-8-(2,4,6-trimethyl-phenyl)-8H-1,3a,7,8-tetraaza-cyclopenta[α]inden-3-ylmethyl]-amine], the Ki was below 100 nM.

For the compound `CCCN(Cc1c(CC)nc2n(-c3c(C)cc(C)cc3C)c3ncccc3n12)CC1CC1` [Example 247, Cyclopropylmethyl-[2-ethyl-8-(2,4,6-trimethyl-phenyl)-8H-1,3a,7,8-tetraaza-cyclopenta[α]inden-3-ylmethyl]-propyl-amine], the inhibition constant Ki is below 100 nM.

For `CCc1nc2n(-c3c(C)cc(C)cc3C)c3ncccc3n2c1CN(CC)CCc1ccccc1` [Example 248, Ethyl-[2-ethyl-8-(2,4,6-trimethyl-phenyl)-8H-1,3a,7,8-tetraaza-cyclopenta[α]inden-3-ylmethyl]-phenethyl-amine], the Ki is below 100 nM.

Turning to `C=CCN(CCC)Cc1c(CC)nc2n(-c3c(C)cc(C)cc3C)c3ncccc3n12` [Example 249, Allyl-[2-ethyl-8-(2,4,6-trimethyl-phenyl)-8H-1,3a,7,8-tetraaza-cyclopenta[α]inden-3-ylmethyl]-propyl-amine], the Ki was below 100 nM.

Regarding `CCc1nc2n(-c3c(C)cc(C)cc3C)c3ncccc3n2c1CN(CC)CC1CC1` [Example 250, Cyclopropylmethyl-ethyl-[2-ethyl-8-(2,4,6-trimethyl-phenyl)-8H-1,3a,7,8-tetraaza-cyclopenta[α]inden-3-ylmethyl]-amine], the inhibition constant Ki was below 1000 nM.

In the case of `C=CCN(CC=C)Cc1c(CC)nc2n(-c3c(C)cc(C)cc3C)c3ncccc3n12` [Example 251, Diallyl-[2-ethyl-8-(2,4,6-trimethyl-phenyl)-8H-1,3a,7,8-tetraaza-cyclopenta[α]inden-3-ylmethyl]-amine], the inhibition constant Ki is below 1000 nM.

On to `CCCN(CCC1CC1)Cc1c(CC)nc2n(-c3c(C)cc(C)cc3C)c3ncccc3n12` [Example 252, (2-Cyclopropyl-ethyl)-[2-ethyl-8-(2,4,6-trimethyl-phenyl)-8H-1,3a,7,8-tetraaza-cyclopenta[α]inden-3-ylmethyl]-propyl-amine], for which the Ki is below 1000 nM.

With `CCC(CC)NCc1c(C)nc2n(-c3c(C)cc(C)cc3Cl)c3ncccc3n12` [Example 279, [8-(2-Chloro-4,6-dimethyl-phenyl)-2-methyl-8H-1,3a,7,8-tetraaza-cyclopenta[α]inden-3-ylmethyl]-(1-ethyl-propyl)-amine], the inhibition constant (Ki) was below 10000 nM.

On to `CCCN(CC1CC1)C(=O)c1c(C)nc2n(-c3c(C)cc(C)cc3C)c(Cl)cn12` [Example 283, 6-Chloro-2-methyl-7-(2,4,6-trimethyl-phenyl)-7H-imidazo[1,2-a]imidazole-3-carboxylic acid cyclopropylmethyl-propyl-amide], for which the Ki was below 100 nM.

For the compound `CCCN(Cc1c(C)nc2n(-c3c(C)cc(C)cc3C)c(Cl)cn12)CC1CC1` [Example 284, [6-Chloro-2-methyl-7-(2,4,6-trimethyl-phenyl)-7H-imidazo[1,2-a]imidazol-3-ylmethyl]-cyclopropylmethyl-propyl-amine], the Ki is below 100 nM.

Regarding `CCCN(CC1CC1)C(=O)c1c(CC)nc2n(-c3ccc(C(C)C)cc3Br)c(Cl)cn12` [Example 285, 6-Chloro-2-ethyl-7-(2-bromo-4-isopropylphenyl)-7H-imidazo[1,2-a]imidazole-3-carboxylic acid N-cyclopropylmethyl-N-propylamide], the inhibition constant Ki is below 1000 nM.

Take `CCc1nc2n(-c3ccc(Cl)cc3Cl)c(Cl)cn2c1C(=O)N(CC1CC1)CC(F)(F)F` [Example 286, 6-Chloro-2-ethyl-7-(2,4-dichlorophenyl)-7H-imidazo[1,2-a]imidazole-3-carboxylic acid N-cyclopropylmethyl-N-(2,2,2-trifluoroethyl)amide]: the inhibition constant Ki is below 10 nM.

As to `CCCN(CCC)C(=O)c1c(CC)nc2n(-c3ccc(Cl)cc3Cl)c(Cl)cn12` [Example 287, 6-Chloro-2-ethyl-7-(2,4-dichlorophenyl)-7H-imidazo[1,2-a]imidazole-3-carboxylic acid N,N-dipropylamide], the Ki was below 10 nM.

Take `CCCN(CCC)Cc1c(CC)nc2n(-c3ccc(Cl)cc3Cl)c(Cl)cn12` [Example 288, 3-[(N,N-Dipropylamino)methyl]-6-chloro-2-ethyl-7-(2,4-diclorophenyl)-7H-imidazo[1,2-a]imidazole]: the Ki was below 100 nM.

With `CCc1nc2n(-c3ccc(Cl)cc3Cl)c(Cl)cn2c1CN(CC1CC1)CC(F)(F)F` [Example 289, 3-[(N-Cyclopropylmethyl-N-(2,2,2-trifluoroethyl)amino)methyl]-6-chloro-2-ethyl-7-(2,4-diclorophenyl)-7H-imidazo[1,2-a]imidazole], the Ki is below 100 nM.

Take `CCCN(CC1CC1)C(=O)c1c(CC)nc2n(-c3c(C)cc(C)cc3C)c(Cl)cn12` [Example 290, 6-Chloro-2-ethyl-7-(2,4,6-trimethylphenyl)-7H-imidazo[1,2-a]imidazole-3-carboxylic acid N-cyclopropylmethyl-N-propylamide]: the Ki is below 100 nM.

`CCCCN(CC)C(=O)c1c(CC)nc2n(-c3c(C)cc(C)cc3C)c(Cl)cn12` [Example 291, 6-Chloro-2-ethyl-7-(2,4,6-trimethylphenyl)-7H-imidazo[1,2-a]imidazole-3-carboxylic acid N-butyl-N-ethylamide]: the inhibitory constant (Ki) was below 100 nM.

On to `CCCN(CCC)C(=O)c1c(CC)nc2n(-c3c(C)cc(C)cc3C)c(Cl)cn12` [Example 292, 6-Chloro-2-ethyl-7-(2,4,6-trimethylphenyl)-7H-imidazo[1,2-a]imidazole-3-carboxylic acid N,N-dipropylamide], for which the Ki was below 100 nM.

Consider `CCc1nc2n(-c3c(C)cc(C)cc3C)c(Cl)cn2c1C(=O)N(CC)CC` [Example 293, 6-Chloro-2-ethyl-7-(2,4,6-trimethylphenyl)-7H-imidazo[1,2-a]imidazole-3-carboxylic acid N,N-diethylamide], for which the Ki is below 1000 nM.

For the compound `CCCCN(CC)Cc1c(CC)nc2n(-c3c(C)cc(C)cc3C)c(Cl)cn12` [Example 294, 3-[(N-Butyl-N-ethylamino)methyl]-6-chloro-2-ethyl-7-(2,4,6-trimethylphenyl)-7H-imidazo[1,2-a]imidazole], the Ki was below 1000 nM.

Take `C=CCN(CC=C)C(=O)c1c(CC)nc2n(-c3c(C)cc(C)cc3C)c(Cl)cn12` [Example 295, 6-Chloro-2-ethyl-7-(2,4,6-trimethylphenyl)-7H-imidazo[1,2-a]imidazole-3-carboxylic acid N,N-diallylamide]: the inhibition constant (Ki) was below 1000 nM.

For `CCc1nc2n(-c3c(C)cc(C)cc3C)c(Cl)cn2c1C(=O)N(CC1CC1)CC(F)(F)F` [Example 296, 6-Chloro-2-ethyl-7-(2,4,6-trimethylphenyl)-7H-imidazo[1,2-a]imidazole-3-carboxylic acid N-cyclopropylmethyl-N-(2,2,2-trifluoroethyl)amide], the Ki was below 10 nM.

For `CCc1nc2n(-c3c(C)cc(C)cc3C)c(Cl)cn2c1C(=O)N(CC)Cc1ccncc1` [Example 297, 6-Chloro-2-ethyl-7-(2,4,6-trimethylphenyl)-7H-imidazo[1,2-a]imidazole-3-carboxylic acid N-ethyl-N-(pyridin-4-yl)methylamide], the Ki is below 1000 nM.

Regarding `CCc1nc2n(-c3c(C)cc(C)cc3C)c(Cl)cn2c1C(=O)N(CC)CC1CC1` [Example 298, 6-Chloro-2-ethyl-7-(2,4,6-trimethylphenyl)-7H-imidazo[1,2-a]imidazole-3-carboxylic acid N-cyclopropylmethyl-N-ethylamide], the inhibition constant (Ki) is below 10 nM.

With `CCc1nc2n(-c3c(C)cc(C)cc3C)c(Cl)cn2c1CN(CC)CC1CC1` [Example 299, 3-[(N-Cyclopropylmethyl-N-ethylamino)methyl]-6-chloro-2-ethyl-7-(2,4,6-trimethylphenyl)-7H-imidazo[1,2-a]imidazole], the inhibitory constant (Ki) is below 100 nM.

In the case of `CCc1nc2n(-c3c(C)cc(C)cc3C)c(Cl)cn2c1C(=O)N1CC(C)CC(C)C1` (stereo not drawn) [Example 300], the inhibition constant (Ki) is below 100 nM.

Consider `CCCN(CC1CC1)C(=O)c1c(C)nc2n1CC(=O)N2c1c(C)cc(C)cc1C` [Example 301, 2-Methyl-6-oxo-7-(2,4,6-trimethyl-phenyl)-6,7-dihydro-5H-imidazo[1,2-a]imidazole-3-carboxylic acid cyclopropylmethyl-propyl-amide], for which the inhibition constant (Ki) is below 1000 nM.

Take `CCCN(CC1CC1)C(=O)c1c(C(F)(F)F)nc2n(-c3c(C)cc(C)cc3C)c(Cl)cn12` [Example 302, 6-Chloro-2-trifluoromethyl-7-(2,4,6-trimethyl-phenyl)-7H-imidazo[1,2-a]imidazole-3-carboxylic acid cyclopropylmethyl-propyl-amide]: the inhibition constant Ki is below 100 nM.

For `CCCN(Cc1c(C(F)(F)F)nc2n(-c3c(C)cc(C)cc3C)c(Cl)cn12)CC1CC1` [Example 303, [6-Chloro-2-trifluoromethyl-7-(2,4,6-trimethyl-phenyl)-7H-imidazo[1,2-a]imidazol-3-ylmethyl]-cyclopropylmethyl-propyl-amine], the Ki is below 10 nM.
